According to patent US8097773B2, “Process for selecting banana clones and banana clones obtained thereby” (Rahan Meristem (1998) Ltd, priority 2004, dated 2012):

What was measured:
Assay type in all cases: in vivo, Musa acuminata AAA, cv. 'Grande Naine'
[1] = system: Dwarf mutant banana Grande Naine plantlets; experiment: Influence of GA3 on internode length of in-vitro banana plantlets (GA sensitivity bioassay), Dwarf
Protocol: (§1) Somaclonal variants with both high and low sensitivity to GA were generated as a consequence of an extensive duration in tissue culture. Both ‘off-types’ were detectable by a relatively simple bioassay developed in this laboratory (Table 4). […] On the other hand the ‘Extra Dwarf’ phenotype was insensitive to the presence of GA in the medium.
(§2) Meristem culture was performed on a single ‘Grande Naine’ clone employing a standard protocol used at Rahan Meristem. The meristems were sub-cultured extensively (23 cycles) to induce somaclonal variations. The in vitro plantlets were transferred to a stage III medium containing 10 ppm of gibberellic acid (GA). […] Further analysis of somaclonal variation was carried out in ex-vitro conditions. Following acclimatization, the plants were planted in 5 L pots and placed in a poly-ethylene covered greenhouse for approximately 16 weeks prior to selection of ‘off-types’. Candidate plants showing distinct somaclonal variations were selected and used for further analysis. Stability of the different mutations was monitored following the growth of the selected clones in a commercial plantation in Rosh Hanikra, Israel.

[2] = system: Extra dwarf mutant banana Grande Naine plantlets; experiment: Influence of GA3 on internode length of in-vitro banana plantlets (GA sensitivity bioassay), Extra dwarf
Protocol: as §1, §2

[3] = system: normal in-vitro banana Grande Naine plantlets; experiment: Influence of GA3 on internode length of in-vitro banana plantlets (GA sensitivity bioassay), normal; conditions: GA3 10 mg/L in medium, grown 5 weeks, hormone-free control 14.2
Protocol: as §1, §2

## C=C1C[C@]23C[C@@]1(O)CC[C@H]2[C@@]12C=C[C@H](O)[C@@](C)(C(=O)O1)[C@H]2[C@@H]3C(=O)O [GA3, gibberellic acid]
[1]; Dwarf plantlets, GA3 10 mg/L in medium, grown 5 weeks, hormone-free control 10.8
  "internode" length: 14.9 b cm
[1]; dwarf genotype, GA in the medium
  sensitivity to GA: showed sensitivity
[2]; 'Extra Dwarf' phenotype, GA in the medium
  sensitivity to GA: insensitive
[2]; Extra dwarf mutant plantlets, GA3 10 mg/L in medium, grown 5 weeks, hormone-free control 9.6
  "internode" length: 9.6 cm·days
[3]
  "internode" length: 21.7 a cm
